Experimental data taken from patent US20150025143A1, “BETA-HYDROXY-BETA-METHYLBUTYRIC ACID FOR IMPROVING GLUCOSE TOLERANCE” (ABBOTT LABORATORIES, priority 2012, published 2015).

Assays:
C57BL/6J mice = experiment: oral glucose tolerance after nine weeks of supplemented feeding and exercise; type: in vivo; conditions: 3.4 mg/g of pediatric nutritional supplement, fed nine weeks with exercise; oral glucose 2 g/Kg; compared to rodent pellet feed control, pediatric nutritional supplement control and both leucine groups (5 and 10 mg/g); FIG. 1
Procedure: In this Example, the effect of (1) HMB and (2) leucine on muscle glucose tolerance was analyzed in an in vivo study.
C57BL/6J mice (Charles River Laboratories, Wilmington Mass.), 21 days post-weaning, were fed either a commercially available pediatric nutritional supplement supplemented with either (1) calcium HMB or (2) leucine, and required to exercise, for nine weeks. […]
Following the nine weeks, the mice were kept overnight for fasting and body weight was recorded. […] Before glucose administration, the blood glucose was measured by tail snip using one-touch ultra Glucometer and glucose strips.
All test groups were orally administered the glucose solution at a concentration of 2 g/Kg body weight. […] After oral glucose administration, blood glucose levels were analyzed at different time points (i.e., 15, 30, 60, 90, and 120 minutes) using Glucometer and glucose strips.

[1] = system: Spragley-Dawley (SD) rats; experiment: effect of an acute oral dose given before a glucose load on the blood glucose spike (lowering glycemic index); type: in vivo; conditions: given 30 minutes before glucose load of approximately 2 g/kg, FIG. 2
Procedure: In this Example, the effect of calcium HMB on lowering glycemic index was evaluated in an in vivo study. Particularly, an acute oral dose of calcium HMB was evaluated to determine whether, if given prior to a glucose load, the dose was able to blunt the initial glucose spike.
Spragley-Dawley (SD) rats (21 days post weaning) (n=7 or 8) were fed an oral dose of calcium HMB at a concentration of: 100 mg/kg (mpk), 300 mpk or 1000 mpk. After thirty minutes, the rats were then orally fed a glucose load consisting of a glucose solution having a concentration of approximately 2 g/kg body weight. A control group (n=4) was not fed the oral dose of calcium HMB prior to the glucose load.
Blood glucose levels of the rats were measured by tail snip using one-touch ultra Glucometer and glucose strips at different time points (0, 15, 30, 45, 60, 90, and 120 minutes).

`CC(C)(O)CC(=O)O.[Ca]` [Calcium HMB, calcium beta-hydroxy-beta-methylbutyric acid] was tested, and the “glucose tolerance (blood glucose after oral glucose administration)” value (C57BL/6J mice) was “improved glucose tolerance”, the “glucose spike at 15 minutes post dosing” value ([1]; 1000 mpk oral) was “significantly reduced glucose spike” and the “glucose spike at early time points” value ([1]; high oral doses) was “significantly blunted glucose spike”.
